Source: ChEMBL document CHEMBL4376803, “Recent Advances in the Exploration of Therapeutic Analogues of Gramicidin S, an Old but Still Potent Antimicrobial Peptide” (J Med Chem, 2019)
Values after ≈ are worked out from the molar mass of the structure shown. Square brackets hold non-standard residues; d marks the D form. Peptide text beside a SMILES is read from it. Orn = NCCC[C@H](N)C(=O)O

Experiments:
Assay type in all cases: functional
[1] = tested on: Escherichia coli; assay: Antibacterial activity against Escherichia coli UB1005 after overnight incubation by microtiter dilution method
[2] = tested on: Pseudomonas aeruginosa; assay: Antibacterial activity against Pseudomonas aeruginosa H187 after overnight incubation by microtiter dilution method
[3] = tested on: Enterococcus faecalis; assay: Antibacterial activity against Enterococcus faecalis ATCC 29212 after overnight incubation by microtiter dilution method
[4] = tested on: Staphylococcus aureus; assay: Antibacterial activity against Staphylococcus aureus K147 after overnight incubation by microtiter dilution method
[5] = tested on: Candida albicans; assay: Antibacterial activity against Candida albicans after overnight incubation by microtiter dilution method
[6] = tested on: Escherichia coli; assay: Antibacterial activity against Escherichia coli ATCC 25922
[7] = tested on: Pseudomonas aeruginosa; assay: Antibacterial activity against Pseudomonas aeruginosa ATCC 27853
[8] = tested on: Enterococcus faecalis; assay: Antibacterial activity against Enterococcus faecalis ATCC 29212
[9] = tested on: Staphylococcus aureus; assay: Antibacterial activity against Staphylococcus aureus ATCC 29213
[10] = tested on: Staphylococcus aureus; assay: Antibacterial activity against methicillin-resistant Staphylococcus aureus ATCC 4330
[11] = tested on: Escherichia coli; assay: Antibacterial activity against Escherichia coli NBRC 12734 after overnight incubation by microplate dilution method
[12] = tested on: Pseudomonas aeruginosa; assay: Antibacterial activity against Pseudomonas aeruginosa NBRC 3080 after overnight incubation by microplate dilution method
[13] = tested on: Bacillus subtilis; assay: Antibacterial activity against Bacillus subtilis NBRC 3513 after overnight incubation by microplate dilution method
[14] = tested on: Staphylococcus aureus; assay: Antibacterial activity against Staphylococcus aureus NBRC 12732 after overnight incubation by microplate dilution method
[15] = tested on: Priestia megaterium; assay: Antibacterial activity against Bacillus megaterium ATCC 19213 after overnight incubation by microplate dilution method
[16] = tested on: Escherichia coli; assay: Antibacterial activity against Escherichia coli ATCC 25922 after 24 hrs by broth dilution method; conditions: ATCC 25922, 24 h
[17] = tested on: Pseudomonas aeruginosa; assay: Antibacterial activity against Pseudomonas aeruginosa ATCC 19582 after 24 hrs by broth dilution method; conditions: ATCC 19582, 24 h
[18] = tested on: Enterococcus faecalis; assay: Antibacterial activity against Enterococcus faecalis 1131 after 24 hrs by broth dilution method; conditions: Enterococcus faecalis, 1131, 24 h
[19] = tested on: Staphylococcus aureus; assay: Antibacterial activity against Staphylococcus aureus 7323
[20] = tested on: Escherichia coli; assay: Antibacterial activity against Escherichia coli K-12 strain W3110 incubated for 20 hrs by liquid microdilution method; conditions: K-12 substr. W3110, 20 h
[21] = tested on: Staphylococcus aureus; assay: Antibacterial activity against Staphylococcus aureus 209P incubated for 20 hrs by liquid microdilution method
[22] = tested on: Pseudomonas aeruginosa; assay: Antibacterial activity against Pseudomonas aeruginosa ATCC 27853 incubated for 24 hrs; conditions: ATCC 27853, 24 h
[23] = tested on: Escherichia coli; assay: Antibacterial activity against Escherichia coli ATCC 25922 after 24 hrs; conditions: ATCC 25922, 24 h
[24] = tested on: Enterococcus faecalis; assay: Antibacterial activity against Enterococcus faecalis ATCC 29212 after 24 hrs; conditions: ATCC 29212, 24 h
[25] = tested on: Staphylococcus aureus; assay: Antibacterial activity against Staphylococcus aureus ATCC 29213 after 24 hrs; conditions: ATCC 29213, 24 h
[26] = tested on: Staphylococcus epidermidis; assay: Antibacterial activity against Staphylococcus epidermidis ATCC 12228 incubated for 24 hrs; conditions: ATCC 12228, 24 h
[27] = tested on: Bacillus cereus; assay: Antibacterial activity against Bacillus cereus ATCC 11778 incubated for 24 hrs; conditions: ATCC 11778, 24 h
[28] = tested on: Staphylococcus aureus; assay: Antibacterial activity against Staphylococcus aureus ATCC 25923 after 22 hrs by double dilution method; conditions: ATCC 25923, 22 h
[29] = tested on: Escherichia coli; assay: Antibacterial activity against Escherichia coli ATCC 25922 after 22 hrs by double dilution method; conditions: ATCC 25922, 22 h
[30] = tested on: Pseudomonas aeruginosa; assay: Antibacterial activity against Pseudomonas aeruginosa ATCC 27853 after 22 hrs by double dilution method; conditions: ATCC 27853, 22 h
[31] = tested on: Enterococcus faecalis; assay: Antibacterial activity against Enterococcus faecalis ATCC 29212 after 22 hrs by double dilution method; conditions: ATCC 29212, 22 h
[32] = tested on: Staphylococcus epidermidis; assay: Antibacterial activity against Staphylococcus epidermidis ATCC 12228 after 22 hrs by double dilution method; conditions: ATCC 12228, 22 h
[33] = tested on: Escherichia coli; assay: Antibacterial activity against Escherichia coli ATCC 8739 incubated for 48 hrs; conditions: ATCC 8739, 48 h
[34] = tested on: Pseudomonas aeruginosa; assay: Antibacterial activity against Pseudomonas aeruginosa ATCC 9027 incubated for 48 hrs; conditions: ATCC 9027, 48 h
[35] = tested on: Staphylococcus aureus; assay: Antibacterial activity against Staphylococcus aureus ATCC 6538 incubated for 48 hrs; conditions: ATCC 6538, 48 h
[36] = tested on: Bacillus subtilis; assay: Antibacterial activity against Bacillus subtilis CIP 52.65 incubated for 48 hrs; conditions: CIP 52.65, 48 h
[37] = tested on: Escherichia coli; assay: Antibacterial activity against Escherichia coli NBRC 12734
[38] = tested on: Pseudomonas aeruginosa; assay: Antibacterial activity against Pseudomonas aeruginosa NBRC 3080
[39] = tested on: Bacillus subtilis; assay: Antibacterial activity against Bacillus subtilis NBRC 3513
[40] = tested on: Staphylococcus aureus; assay: Antibacterial activity against Staphylococcus aureus NBRC 12732
[41] = tested on: Priestia megaterium; assay: Antibacterial activity against Bacillus megaterium ATCC 19213
[42] = tested on: Staphylococcus aureus; assay: Antibacterial activity against methicillin-resistant Staphylococcus aureus NT 1110301981H-T034-PVL+ incubated for 24 hrs
[43] = tested on: Escherichia coli; assay: Antibacterial activity against Escherichia coli K-12 ATCC 29181 after overnight incubation by broth microdilution method
[44] = tested on: Klebsiella pneumoniae; assay: Antibacterial activity against Klebsiella pneumonia K6 ATCC 700603 after overnight incubation by broth microdilution method; conditions: 700603 K6
[45] = tested on: Salmonella; assay: Antibacterial activity against Salmonella after overnight incubation by broth microdilution method
[46] = tested on: Staphylococcus aureus; assay: Antibacterial activity against multidrug-resistant Staphylococcus aureus ATCC BAA-44 after overnight incubation by broth microdilution method
[47] = tested on: Staphylococcus aureus; assay: Antibacterial activity against vancomycin-resistant Staphylococcus aureus Mu50/ATCC 700699 after overnight incubation by broth microdilution method
[48] = tested on: Staphylococcus epidermidis; assay: Antibacterial activity against Staphylococcus epidermidis ATCC 27626 after overnight incubation by broth microdilution method
[49] = tested on: Staphylococcus aureus; assay: Antibacterial activity against Staphylococcus aureus
[50] = tested on: Staphylococcus epidermidis; assay: Antibacterial activity against Staphylococcus epidermidis
[51] = tested on: Staphylococcus xylosus; assay: Antibacterial activity against Staphylococcus xylosus
[52] = tested on: Staphylococcus aureus; assay: Antibacterial activity against Staphylococcus aureus ATCC 49975 after 16 to 20 hrs by broth microdilution method

CC(C)C[C@@H]1NC(=O)[C@H](CCCN)NC(=O)[C@H](C(C)C)NC(=O)[C@@H]2CCCN2C(=O)[C@@H](Cc2ccccc2)NC(=O)[C@H](CC(C)C)NC(=O)[C@H](CCCN)NC(=O)[C@H](C(C)C)NC(=O)[C@@H]2CCCN2C(=O)[C@@H](Cc2ccccc2)NC1=O (cyclo(V[Orn]L[dF]PV[Orn]L[dF]P))
MIC [1]: 6.2 µg/mL (≈ 5.43 µM) | MIC [2]: 20 µg/mL (≈ 17.5 µM) | MIC [3]: 2.8 µg/mL (≈ 2.45 µM) | MIC [4]: 1.5 µg/mL (≈ 1.31 µM) | MIC [5]: 3.1 µg/mL (≈ 2.72 µM) | MIC [6]: 32 µg/mL (≈ 28 µM) | MIC [7]: 64 µg/mL (≈ 56.1 µM) | MIC [8]: 8 µg/mL (≈ 7.01 µM) | MIC [9]: 4 µg/mL (≈ 3.5 µM) | MIC [10]: 8 µg/mL (≈ 7.01 µM) | MIC [11]: 25 µg/mL (≈ 21.9 µM) | MIC [12]: 25 µg/mL (≈ 21.9 µM) | MIC [13]: 3.13 µg/mL (≈ 2.74 µM) | MIC [14]: 3.13 µg/mL (≈ 2.74 µM) | MIC [15]: 3.13 µg/mL (≈ 2.74 µM) | MIC [16]: 32 µg/mL (≈ 28 µM) | MIC [17]: 8 µg/mL (≈ 7.01 µM) | MIC [18]: 8 µg/mL (≈ 7.01 µM) | MIC [19]: 8 µg/mL (≈ 7.01 µM) | MIC [20]: 32 µg/mL (≈ 28 µM) | MIC [21]: 4 µg/mL (≈ 3.5 µM) | MIC [22]: 64 µg/mL (≈ 56.1 µM) | MIC [23]: 32 µg/mL (≈ 28 µM) | MIC [24]: 8 µg/mL (≈ 7.01 µM) | MIC [25]: 8 µg/mL (≈ 7.01 µM) | MIC [26]: 8 µg/mL (≈ 7.01 µM) | MIC [27]: 8 µg/mL (≈ 7.01 µM) | MIC [28]: 4 µg/mL (≈ 3.5 µM) | MIC [29]: 32 µg/mL (≈ 28 µM) | MIC [30]: 64 µg/mL (≈ 56.1 µM) | MIC [31]: 8 µg/mL (≈ 7.01 µM) | MIC [32]: 2 µg/mL (≈ 1.75 µM) | MIC [33]: 12.5 µg/mL (≈ 11 µM) | MIC [34]: 50 µg/mL (≈ 43.8 µM) | MIC [35]: 3.12 µg/mL (≈ 2.74 µM) | MIC [36]: 1.56 µg/mL (≈ 1.37 µM) | MIC [37]: 25 µg/mL (≈ 21.9 µM) | MIC [38]: 25 µg/mL (≈ 21.9 µM) | MIC [39]: 3.13 µg/mL (≈ 2.74 µM) | MIC [40]: 3.13 µg/mL (≈ 2.74 µM) | MIC [41]: 3.13 µg/mL (≈ 2.74 µM) | MIC [42]: 8 µg/mL (≈ 7.01 µM) | MIC [43]: 28 µg/mL (≈ 24.5 µM) | MIC [44]: 3.6 µg/mL (≈ 3.15 µM) | MIC [45]: 28 µg/mL (≈ 24.5 µM) | MIC [46]: 1.8 µg/mL (≈ 1.58 µM) | MIC [47]: 3.6 µg/mL (≈ 3.15 µM) | MIC [48]: 1.8 µg/mL (≈ 1.58 µM) | MIC [49]: 2 µg/mL (≈ 1.75 µM) | MIC [50]: 2 µg/mL (≈ 1.75 µM) | MIC [51]: 1 µg/mL (≈ 0.876 µM) | MIC [52]: 2 µg/mL (≈ 1.75 µM)
